Reference: patent US7935702B2, “Substituted biaryl quinolin-4-ylamine analogues” (Neurogen Corporation, priority 2004, dated 2011)

biological target: T1, human capsaicin receptor (Homo sapiens, UniProt Q8NER1); assay: Calcium mobilization assay, determination of antagonist activity (Example 6); type: cell-based; settings: Table I; IC50 determined as described in Example 6; read-out: IC50
T1 construct: expressed in transfected cells
Description: A cDNA encoding full length human capsaicin receptor (SEQ ID NO:1, 2 or 3 of U.S. Pat. No. 6,482,611) is subcloned in the plasmid pBK-CMV (Stratagene, La Jolla, Calif.) for recombinant expression in mammalian cells.
Human embryonic kidney (HEK293) cells are transfected with the pBK-CMV expression construct encoding the full length human capsaicin receptor using standard methods. The transfected cells are selected for two weeks in media containing G418 (400 μg/ml) to obtain a pool of stably transfected cells. Independent clones are isolated from this pool by limiting dilution to obtain clonal stable cell lines for use in subsequent experiments.
This Example illustrates representative calcium mobilization assays for use in evaluating test compounds for agonist and antagonist activity.
Cells transfected with expression plasmids (as described in Example 4) and thereby expressing human capsaicin receptor are seeded and grown to 70-90% confluency in FALCON black-walled, clear-bottomed 96-well plates (#3904, BECTON-DICKINSON, Franklin Lakes, N.J.). The culture medium is emptied from the 96 well plates and FLUO-3 AM calcium sensitive dye (Molecular Probes, Eugene, Oreg.) is added to each well (dye solution: 1 mg FLUO-3 AM, 440 μL DMSO and 440 μl 20% pluronic acid in DMSO, diluted 1:250 in Krebs-Ringer HEPES (KRH) buffer (25 mM HEPES, 5 mM KCl, 0.96 mM NaH2PO4, 1 mM MgSO4, 2 mM CaCl2, 5 mM glucose, 1 mM probenecid, pH 7.4), 50 μl diluted solution per well). Plates are covered with aluminum foil and incubated at 37° C. for 1-2 hours in an environment containing 5% CO2. After the incubation, the dye is emptied from the plates, and the cells are washed once with KRH buffer, and resuspended in KRH buffer.
To measure the ability of a test compound to agonize or antagonize a calcium mobilization response in cells expressing capsaicin receptors to capsaicin or other vanilloid agonist, the EC50 of the agonist capsaicin is first determined. An additional 20 μl of KRH buffer and 1 μl DMSO is added to each well of cells, prepared as described above. 100 μl capsaicin in KRH buffer is automatically transferred by the FLIPR instrument to each well. Capsaicin-induced calcium mobilization is monitored using either FLUOROSKAN ASCENT (Labsystems; Franklin, Mass.) or FLIPR (fluorometric imaging plate reader system; Molecular Devices, Sunnyvale, Calif.) instruments. Data obtained between 30 and 60 seconds after agonist application are used to generate an 8-point concentration response curve, with final capsaicin concentrations of 1 nM to 3 μM. KALEIDAGRAPH software (Synergy Software, Reading, Pa.) is used to fit the data to the equation: y=a*(1/(1+(b/x)^c)) to determine the 50% excitatory concentration (EC50) for the response. In this equation, y is the maximum fluorescence signal, x is the concentration of the agonist or antagonist (in this case, capsaicin), a is the Emax, b corresponds to the EC50 value and c is the Hill coefficient. Determination of Agonist Activity
Test compounds are dissolved in DMSO, diluted in 20 μl KRH buffer so that the final concentration of test compounds in the assay well is between 1 μM and 5 μM, and added to cells prepared as described above. The 96 well plates containing prepared cells and test compounds are incubated in the dark, at room temperature for 0.5 to 6 hours. It is important that the incubation not continue beyond 6 hours. Just prior to determining the fluorescence response, 100 μl capsaicin in KRH buffer at twice the EC50 concentration determined as described above is automatically added by the FLIPR instrument to each well of the 96 well plate for a final sample volume of 200 μl and a final capsaicin concentration equal to the EC50. The final concentration of test compounds in the assay wells is between 1 μM and 5 μM. […]

T1 sequence (Q8NER1 whole entry): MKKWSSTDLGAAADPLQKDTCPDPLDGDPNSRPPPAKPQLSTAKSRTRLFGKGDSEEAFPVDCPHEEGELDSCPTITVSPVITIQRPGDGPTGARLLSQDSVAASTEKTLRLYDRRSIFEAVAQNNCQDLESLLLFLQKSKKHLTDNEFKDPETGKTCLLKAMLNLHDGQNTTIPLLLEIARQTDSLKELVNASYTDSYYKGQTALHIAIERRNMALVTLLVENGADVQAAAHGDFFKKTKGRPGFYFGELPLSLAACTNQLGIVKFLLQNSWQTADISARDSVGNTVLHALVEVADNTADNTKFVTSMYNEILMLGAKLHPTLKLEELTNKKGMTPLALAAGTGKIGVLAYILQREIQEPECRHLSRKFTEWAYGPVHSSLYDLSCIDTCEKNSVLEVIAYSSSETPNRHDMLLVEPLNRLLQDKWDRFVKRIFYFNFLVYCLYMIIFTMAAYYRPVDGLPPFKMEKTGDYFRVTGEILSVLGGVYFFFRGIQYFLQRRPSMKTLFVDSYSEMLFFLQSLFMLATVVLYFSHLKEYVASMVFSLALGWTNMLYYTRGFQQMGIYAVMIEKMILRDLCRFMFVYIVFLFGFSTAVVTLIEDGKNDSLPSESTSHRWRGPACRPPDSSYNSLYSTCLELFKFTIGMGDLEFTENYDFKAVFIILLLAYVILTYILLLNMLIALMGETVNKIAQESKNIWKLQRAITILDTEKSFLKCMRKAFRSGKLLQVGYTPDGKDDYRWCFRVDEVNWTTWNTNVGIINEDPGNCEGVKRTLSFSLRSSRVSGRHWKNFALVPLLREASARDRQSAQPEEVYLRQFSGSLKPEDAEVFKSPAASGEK

IC50, < 1000 nM:
Cc1ccc(C(F)(F)F)c(-c2ccc3c(Nc4ccc(C(F)(F)F)cn4)ccnc3n2)n1 [compound 28, [7-(6-Methyl-3-trifluoromethyl-pyridin-2-yl)-[1,8]naphthyridin-4-yl]-(5-trifluoromethyl-pyridin-2-yl)-amine]
CCCN(CCC)C1CCN(c2cc(C(F)(F)F)c(-c3cnc4c(Nc5ccc(C(F)(F)F)cn5)ccnc4n3)nn2)CC1 [compound 81, 3-{6-[4-(dipropylamino)-piperidin-1-yl]-4-(trifluoro-methyl)pyridazin-3-yl}-N-[5-(trifluoromethyl)pyridin-2-yl]pyrido[2,3-b]pyrazin-8-amine]
C[C@H](O)CNc1cc(C(F)(F)F)c(-c2cnc3c(Nc4ccc(C(F)(F)F)cn4)ccnc3n2)nn1 [compound 126, (S)-1-{[5-(trifluoromethyl)-6-(8-{[5-(trifluoromethyl)-pyridin-2-yl]amino}-pyrido[2,3-b]pyrazin-3-yl)pyridazin-3-yl]amino}propan-2-ol]
CCN(CCCO)c1cc(C(F)(F)F)c(-c2cnc3c(Nc4ccc(C(F)(F)F)cn4)ccnc3n2)nn1 [compound 177, 3-{ethyl[5-(trifluoromethyl)-6-(8-{[5-(trifluoromethyl)-pyridin-2-yl]amino}-pyrido[2,3-b]pyrazin-3-yl)-pyridazin-3-yl]amino}propan-1-ol]
NC(=O)c1ccc(C(F)(F)F)c(-c2ccc3c(Nc4ccc(C(F)(F)F)cn4)ccnc3n2)n1 [compound 25, 5-Trifluoromethyl-6-[5-(5-trifluoromethyl-pyridin-2-ylamino)-[1,8]naphthyridin-2-yl]-pyridine-2-carboxylic acid amide]
CC(C)CN(C)c1cc(C(F)(F)F)c(-c2cnc3c(Nc4ccc(C(F)(F)F)cn4)ccnc3n2)nn1 [compound 145, 3-{6-[isobutyl(methyl)amino]-4-(trifluoromethyl)pyridazin-3-yl}-N-[5-(trifluoromethyl)-pyridin-2-yl]pyrido[2,3-b]pyrazin-8-amine]

same assay, conditions: cells expressing human capsaicin receptor; capsaicin at EC50; read-out: IC50 determined as described in Example 6

IC50, < 1000 nM:
COc1ccc(C(F)(F)F)c(-c2ccc3c(Nc4ccc(C(F)(F)F)cn4)ccnc3n2)n1 [Compound 5, [7-(6-Methoxy-3-trifluoromethyl-pyridin-2-yl)-[1,8]naphthyridin-4-yl]-(5-trifluoromethyl-pyridin-2-yl)-amine]
COc1ccc(C(F)(F)F)c(-c2ccc3c(Nc4ncc(C(F)(F)F)cn4)ccnc3n2)n1 [Compound 6, [7-(6-Methoxy-3-trifluoromethyl-pyridin-2-yl)-[1,8]naphthyridin-4-yl]-(5-trifluoromethyl-pyrimidin-2-yl)-amine]
CCOc1nc(Nc2ccnc3nc(-c4ncc(C(N)=O)cc4C(F)(F)F)cnc23)ccc1C(F)(F)F [Compound 9, 6-(8-(6-Ethoxy-5-(trifluoromethyl)pyridin-2-ylamino)pyrido[2,3-b]pyrazin-3-yl)-5-(trifluoromethyl)nicotinamide]
FC(F)(F)c1ccc(Nc2ccnc3nc(-c4nnc(N5CCOCC5)cc4C(F)(F)F)cnc23)nc1 [Compound 19]
Nc1cnc(-c2ccc3c(Nc4ccc(C(F)(F)F)cn4)ccnc3n2)c(C(F)(F)F)c1 [Compound 3, 7-(5-Amino-3-(trifluoromethyl)pyridin-2-yl)-N-(5-(trifluoromethyl)pyridin-2-yl)-1,8-naphthyridin-4-amine]
Cc1cc(F)cnc1-c1ccc2c(Nc3ccc(C(F)(F)F)cn3)ccnc2n1 [Compound 2, 7-(5-Fluoro-3-methylpyridin-2-yl)-N-(5-(trifluoromethyl)ipyridin-2-yl)-1,8-naphthyridin-4-amine]
NC(=O)c1cnc(-c2cnc3c(Nc4cnc5ccccc5n4)ccnc3n2)c(C(F)(F)F)c1 [Compound 14, 6-(8-(Quinoxalin-2-ylamino)pyrido[2,3-b]pyrazin-3-yl)-5-(trifluoromethyl)nicotinamide]
